Legend:
soybean = assay: Test B pre/postemergence soybean; format: in vivo, Glycine max; settings: for Plant response rating, Soybean: scale of 0 to 10 where 0 is no effect and 10 is complete control
In short: (§1)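 Response is a visual 0-to-10 score relative to untreated plants, where 0 means no effect and 10 means complete control, taken twelve to sixteen days after application. Treatments went onto soil at planting and onto foliage of 1- to 4-leaf plants, using a surfactant-containing non-phytotoxic solvent.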

surinam grass = assay: Test B pre/postemergence surinam grass; format: in vivo, Brachiaria decumbens
In short: as §1

pigweed = assay: Test B pre/postemergence pigweed; format: in vivo, Amaranthus retroflexus; settings: for Plant response rating, Redroot pigweed: scale of 0 to 10 where 0 is no effect and 10 is complete control
In short: as §1

bamyardgrass = assay: Test B flood test barnyardgrass; format: in vivo, Echinochloa crus-galli
In short: (§2)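 Flood test on plants grown to the 2-leaf stage; treated plants kept in greenhouse twelve to sixteen days, then visually rated against controls on a 0 (no effect) to 10 (complete control) scale.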

sugar beet = assay: Test B pre/postemergence sugar beet; format: in vivo, Beta vulgaris; settings: for Plant response rating, Sugarbeets: scale of 0 to 10 where 0 is no effect and 10 is complete control
In short: as §1

blackgrass = assay: Test B pre/postemergence blackgrass; format: in vivo, Alopecurus myosuroides
In short: as §1

duck salad = assay: Test B flood test duck salad; format: in vivo, Heteranthera limosa
In short: as §2

giant foxtail = assay: Test B pre/postemergence giant foxtail; format: in vivo, Setaria faberii
In short: as §1

velvetleaf = assay: Test B pre/postemergence velvetleaf; format: in vivo, Abutilon theophrasti; settings: for Plant response rating, Velvetleaf: scale of 0 to 10 where 0 is no effect and 10 is complete control
In short: as §1

smallflower flatsedge = assay: Test B flood test smallflower flatsedge; format: in vivo, Cyperus difformis
In short: as §2

corn = assay: Test B pre/postemergence corn; format: in vivo, Zea mays
In short: as §1

wild oat = assay: Test B pre/postemergence wild oat; format: in vivo, Avena fatua; settings: for Plant response rating, Wild oats: scale of 0 to 10 where 0 is no effect and 10 is complete control
In short: as §1

rape = assay: Test B pre/postemergence rape; format: in vivo, Brassica napus; settings: for Plant response rating, Rape: scale of 0 to 10 where 0 is no effect and 10 is complete control
In short: as §1

purple nutsedge = assay: Test B pre/postemergence purple nutsedge; format: in vivo, Cyperus rotundus; settings: for Plant response rating, Nutsedge: scale of 0 to 10 where 0 is no effect and 10 is complete control
In short: as §1

cocklebur = assay: Test B pre/postemergence cocklebur; format: in vivo, Xanthium strumarium
In short: as §1

morningglory = assay: Test B pre/postemergence morningglory; format: in vivo, Ipomoea hederacea; settings: for Plant response rating, Morningglory: scale of 0 to 10 where 0 is no effect and 10 is complete control
In short: as §1

wheat = assay: Test B pre/postemergence wheat; format: in vivo, Triticum aestivum; settings: for Plant response rating, Wheat: scale of 0 to 10 where 0 is no effect and 10 is complete control
In short: as §1

rice = assay: Test B flood test rice; format: in vivo, Oryza sativa
In short: as §2

crabgrass = assay: Test B pre/postemergence crabgrass; format: in vivo, Digitaria sanguinalis
In short: as §1

[1] = Postemergence, Rate 250 g/ha, scale 0 to 10
[2] = Preemergence, Rate 250 g/ha, scale 0 to 10, 0 is no effect, 10 is complete control
[3] = Preemergence, Rate 500 g/ha, scale 0 to 10, 0 is no effect, 10 is complete control
[4] = Rate 62 g/ha, Postemergence, scale 0 to 10 (0 no effect, 10 complete control)
[5] = Rate 125 g/ha, Postemergence, scale 0 to 10, 0 is no effect, 10 is complete control
[6] = Postemergence, Rate 500 g/ha, scale of 0 to 10 where 0 is no effect and 10 is complete control
[7] = Preemergence, Rate 62 g/ha, scale of 0 to 10 where 0 is no effect and 10 is complete control
[8] = Preemergence, Rate 125 g/ha, scale of 0 to 10 where 0 is no effect and 10 is complete control
[9] = Rate 62 g/ha, flood test species, Pre-emergence, visual evaluation after twelve to sixteen days
[10] = Rate 125 g/ha, under heading Pre-emergence, flood test species, visual evaluation after twelve to sixteen days
[11] = Rate 250 g/ha, Pre-emergence (flood test species), scale 0 to 10, 0 is no effect, 10 is complete control
[12] = Rate 500 g/ha, Pre-emergence, flood test species, scale 0 to 10 (0 no effect, 10 complete control)

For `CC(=O)NCn1c(=O)on(C(=O)N(c2ccc(F)cc2)C(C)C)c1=O` [Compound 473], the “Soybean plant response rating” value (soybean; [1]) was 1, the “Plant response rating, Soybean” value (soybean; Preemergence, Rate 62 g/ha) was 0 and the “Plant response rating, Soybean” value (soybean; Preemergence, Rate 125 g/ha) was 0. For the same compound, the “Soybean plant response rating” value (soybean; [2]) was 0, the “Soybean plant response rating” value (soybean; [3]) was 0 and the “Soybean plant response rating” value (soybean; [4]) was 1. For the same compound, the “Soybean plant response rating” value (soybean; [5]) was 1, the “B. signalgrass plant response rating” value (surinam grass; Postemergence, Rate 250 g/ha, scale 0 to 10, 0 no effect, 10 complete control) was 0 and the “B. signalgrass plant response rating” value (surinam grass; [6]) was 0. For the same compound, the “Plant response rating, B. signalgrass” value (surinam grass; [7]) was 0, the “Plant response rating, B. signalgrass” value (surinam grass; [8]) was 0 and the “B. signalgrass plant response rating” value (surinam grass; [2]) was 0. The “B. signalgrass plant response rating” value (surinam grass; [3]) was 0, the “B. signalgrass plant response rating” value (surinam grass; [4]) was 0 and the “B. signalgrass plant response rating” value (surinam grass; [5]) was 0. The “Redroot pigweed plant response rating” value (pigweed; [1]) was 0, the “Plant response rating, Redroot pigweed” value (pigweed; Preemergence, Rate 62 g/ha) was 2 and the “Plant response rating, Redroot pigweed” value (pigweed; Preemergence, Rate 125 g/ha) was 10. The “Redroot pigweed plant response rating” value (pigweed; [2]) was 10, the “Redroot pigweed plant response rating” value (pigweed; [3]) was 10 and the “Redroot pigweed plant response rating” value (pigweed; [4]) was 0. For the same compound, the “Redroot pigweed plant response rating” value (pigweed; [5]) was 0, the “Plant response rating, Barnyardgrass (0 to 10 scale, 0 is no effect, 10 is complete control)” value (bamyardgrass; [9]) was 0 and the “Barnyardgrass plant response rating (0 to 10 scale, 0 is no effect, 10 is complete control)” value (bamyardgrass; [10]) was 0. For the same compound, the “Barnyardgrass plant response rating” value (bamyardgrass; [11]) was 0, the “Barnyardgrass plant response rating” value (bamyardgrass; [12]) was 0 and the “Sugarbeets plant response rating” value (sugar beet; [1]) was 0. For the same compound, the “Plant response rating, Sugarbeets” value (sugar beet; Preemergence, Rate 62 g/ha) was 0, the “Plant response rating, Sugarbeets” value (sugar beet; Preemergence, Rate 125 g/ha) was 0 and the “Sugarbeets plant response rating” value (sugar beet; [2]) was 0. The “Sugarbeets plant response rating” value (sugar beet; [3]) was 0, the “Sugarbeets plant response rating” value (sugar beet; [4]) was 0 and the “Sugarbeets plant response rating” value (sugar beet; [5]) was 0. For the same compound, the “Blackgrass plant response rating” value (blackgrass; [1]) was 0, the “Blackgrass plant response rating” value (blackgrass; [6]) was 0 and the “Plant response rating, Blackgrass” value (blackgrass; [7]) was 0. For the same compound, the “Plant response rating, Blackgrass” value (blackgrass; [8]) was 0, the “Blackgrass plant response rating” value (blackgrass; [2]) was 0 and the “Blackgrass plant response rating” value (blackgrass; [3]) was 3. The “Blackgrass plant response rating” value (blackgrass; [4]) was 0, the “Blackgrass plant response rating” value (blackgrass; [5]) was 0 and the “Plant response rating, Ducksalad (0 to 10 scale, 0 is no effect, 10 is complete control)” value (duck salad; [9]) was 0. For the same compound, the “Ducksalad plant response rating (0 to 10 scale, 0 is no effect, 10 is complete control)” value (duck salad; [10]) was 0, the “Ducksalad plant response rating” value (duck salad; [11]) was 0 and the “Ducksalad plant response rating” value (duck salad; [12]) was 0. The “Giant foxtail plant response rating” value (giant foxtail; [1]) was 6, the “Giant foxtail plant response rating” value (giant foxtail; [6]) was 7 and the “Plant response rating, Giant foxtail” value (giant foxtail; [7]) was 2. The “Plant response rating, Giant foxtail” value (giant foxtail; [8]) was 3, the “Giant foxtail plant response rating” value (giant foxtail; [2]) was 4 and the “Giant foxtail plant response rating” value (giant foxtail; [3]) was 7. The “Giant foxtail plant response rating” value (giant foxtail; [4]) was 1, the “Giant foxtail plant response rating” value (giant foxtail; [5]) was 2 and the “Velvetleaf plant response rating” value (velvetleaf; [1]) was 0. For the same compound, the “Plant response rating, Velvetleaf” value (velvetleaf; Preemergence, Rate 62 g/ha) was 0, the “Plant response rating, Velvetleaf” value (velvetleaf; Preemergence, Rate 125 g/ha) was 0 and the “Velvetleaf plant response rating” value (velvetleaf; [2]) was 0. The “Velvetleaf plant response rating” value (velvetleaf; [3]) was 0, the “Velvetleaf plant response rating” value (velvetleaf; [4]) was 0 and the “Velvetleaf plant response rating” value (velvetleaf; [5]) was 0. For the same compound, the “Plant response rating, S. Flatsedge (0 to 10 scale, 0 is no effect, 10 is complete control)” value (smallflower flatsedge; [9]) was 0, the “S. Flatsedge plant response rating (0 to 10 scale, 0 is no effect, 10 is complete control)” value (smallflower flatsedge; [10]) was 0 and the “S. Flatsedge plant response rating” value (smallflower flatsedge; [11]) was 0. The “S. Flatsedge plant response rating” value (smallflower flatsedge; [12]) was 0, the “Corn plant response rating” value (corn; [1]) was 0 and the “Corn plant response rating” value (corn; [6]) was 0. For the same compound, the “Plant response rating, Corn” value (corn; [7]) was 0, the “Plant response rating, Corn” value (corn; [8]) was 0 and the “Corn plant response rating” value (corn; [2]) was 0. The “Corn plant response rating” value (corn; [3]) was 0, the “Corn plant response rating” value (corn; [4]) was 0 and the “Corn plant response rating” value (corn; [5]) was 0. For the same compound, the “Wild oats plant response rating” value (wild oat; [1]) was 0, the “Plant response rating, Wild oats” value (wild oat; Preemergence, Rate 62 g/ha) was 0 and the “Plant response rating, Wild oats” value (wild oat; Preemergence, Rate 125 g/ha) was 0. The “Wild oats plant response rating” value (wild oat; [2]) was 0, the “Wild oats plant response rating” value (wild oat; [3]) was 0 and the “Wild oats plant response rating” value (wild oat; [4]) was 0. The “Wild oats plant response rating” value (wild oat; [5]) was 0, the “Rape plant response rating” value (rape; [1]) was 0 and the “Plant response rating, Rape” value (rape; Preemergence, Rate 62 g/ha) was 0. For the same compound, the “Plant response rating, Rape” value (rape; Preemergence, Rate 125 g/ha) was 0, the “Rape plant response rating” value (rape; [2]) was 0 and the “Rape plant response rating” value (rape; [3]) was 0. For the same compound, the “Rape plant response rating” value (rape; [4]) was 0, the “Rape plant response rating” value (rape; [5]) was 0 and the “Nutsedge plant response rating” value (purple nutsedge; [1]) was 0. For the same compound, the “Plant response rating, Nutsedge” value (purple nutsedge; Preemergence, Rate 62 g/ha) was 0, the “Plant response rating, Nutsedge” value (purple nutsedge; Preemergence, Rate 125 g/ha) was 0 and the “Nutsedge plant response rating” value (purple nutsedge; [2]) was 0. For the same compound, the “Nutsedge plant response rating” value (purple nutsedge; [4]) was 0, the “Nutsedge plant response rating” value (purple nutsedge; [5]) was 0 and the “Cocklebur plant response rating” value (cocklebur; [1]) was 0. The “Cocklebur plant response rating” value (cocklebur; [6]) was 0, the “Plant response rating, Cocklebur” value (cocklebur; [7]) was 0 and the “Plant response rating, Cocklebur” value (cocklebur; [8]) was 0. The “Cocklebur plant response rating” value (cocklebur; [3]) was 0, the “Cocklebur plant response rating” value (cocklebur; [4]) was 0 and the “Cocklebur plant response rating” value (cocklebur; [5]) was 0. The “Morningglory plant response rating” value (morningglory; [1]) was 2, the “Plant response rating, Morningglory” value (morningglory; Preemergence, Rate 62 g/ha) was 0 and the “Plant response rating, Morningglory” value (morningglory; Preemergence, Rate 125 g/ha) was 0. For the same compound, the “Morningglory plant response rating” value (morningglory; [2]) was 0, the “Morningglory plant response rating” value (morningglory; [3]) was 0 and the “Morningglory plant response rating” value (morningglory; [4]) was 0. For the same compound, the “Morningglory plant response rating” value (morningglory; [5]) was 1, the “Wheat plant response rating” value (wheat; [1]) was 0 and the “Plant response rating, Wheat” value (wheat; Preemergence, Rate 62 g/ha) was 0. For the same compound, the “Plant response rating, Wheat” value (wheat; Preemergence, Rate 125 g/ha) was 0, the “Wheat plant response rating” value (wheat; [2]) was 0 and the “Wheat plant response rating” value (wheat; [3]) was 0. The “Wheat plant response rating” value (wheat; [4]) was 0, the “Wheat plant response rating” value (wheat; [5]) was 0 and the “Plant response rating, Rice (0 to 10 scale, 0 is no effect, 10 is complete control)” value (rice; [9]) was 0. The “Rice plant response rating (0 to 10 scale, 0 is no effect, 10 is complete control)” value (rice; [10]) was 0, the “Rice plant response rating” value (rice; [11]) was 0 and the “Rice plant response rating” value (rice; [12]) was 0. For the same compound, the “Crabgrass plant response rating” value (crabgrass; [1]) was 3, the “Crabgrass plant response rating” value (crabgrass; [6]) was 8 and the “Plant response rating, Crabgrass” value (crabgrass; [8]) was 2. For the same compound, the “Crabgrass plant response rating” value (crabgrass; [2]) was 4, the “Crabgrass plant response rating” value (crabgrass; [3]) was 7 and the “Crabgrass plant response rating” value (crabgrass; [4]) was 1. For the same compound, the “Crabgrass plant response rating” value (crabgrass; [5]) was 2.
